Test results taken from patent publication US20230095836A1, “SUBSTITUTED 5,6-DIPHENYL-3(2H)-PYRIDAZINONES FOR USE AS FUNGICIDES” (FMC Corporation, priority 2020, published 2023).

Tests used:
Zymoseptoria tritici = assay: Test A: test solution sprayed on wheat seedlings, inoculated next day with Zymoseptoria tritici (wheat leaf blotch); disease rating (100 = 100% disease control, 0 = no control; dash = not tested); type: in vivo; details: for pest or weed control at 50 ppm / Test A disease control rating: 50 ppm
Procedure, shortened: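 Wheat seedlings sprayed to run-off with test solution, inoculated next day with Z. tritici spores, held 48 h at 24° C in saturated atmosphere, then 17 days at 20° C before rating. Scores are % disease control relative to controls (100 = full control, 0 = none).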

Botrytis cinerea = assay: Test E: test suspension sprayed on tomato seedlings, inoculated next day with Botrytis cinerea (tomato Botrytis); visual disease rating (100 = 100% disease control, 0 = no control; dash = not tested); type: in vivo; details: for pest or weed control at 50 ppm / Test E disease control rating: 50 ppm
Procedure, shortened: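 Tomato seedlings were sprayed to run-off and inoculated next day with Botrytis cinerea spores. They were held 48 h at 20° C in saturated humidity, then 3 days at 24° C. Disease control was rated visually against controls (100 = full, 0 = none).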

Alternaria solani = assay: Test F: test suspension sprayed on tomato seedlings, inoculated next day with Alternaria solani (tomato early blight); visual disease rating (100 = 100% disease control, 0 = no control; dash = not tested); type: in vivo; details: for pest or weed control at 50 ppm / Test F disease control rating: 50 ppm
Procedure, shortened: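 Tomato seedlings sprayed to run-off with test suspension, inoculated next day with A. solani spores, held saturated at 27° C. for 48 h, then 20° C. for 3 days. Disease visually rated as % control relative to untreated controls.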

[1] = system: Puccinia recondita f. sp. tritici; assay: Test B: test solution sprayed on wheat seedlings, inoculated next day with Puccinia recondita f. sp. tritici (wheat leaf rust); disease rating (100 = 100% disease control, 0 = no control; dash = not tested); type: in vivo; details: for pest or weed control at 50 ppm / Test B disease control rating: 50 ppm
Source text: The resulting test suspensions were then used in Tests A-F. The test solution was sprayed to the point of run-off on wheat seedlings. […] A rating of 100 indicates 100% disease control and a rating of 0 indicates no disease control (relative to the controls). A dash (—) indicates the compound was not tested.

[2] = system: Blumeria graminis f. sp. tritici; assay: Test C: test suspension sprayed on wheat seedlings, inoculated next day with Blumeria graminis f. sp. tritici (wheat powdery mildew); visual disease rating (100 = 100% disease control, 0 = no control; dash = not tested); type: in vivo; details: for pest or weed control at 50 ppm / Test C disease control rating: 50 ppm
Procedure, shortened: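 Wheat seedlings were sprayed to run-off with test suspension, then dusted next day with Blumeria graminis f. sp. tritici spores. After 8 days at 20 °C in a growth chamber, disease was rated visually as percent control relative to untreated controls.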

Phakopsora pachyrhizi = assay: Test D: test solution sprayed on soybean seedlings, inoculated next day with Phakopsora pachyrhizi (Asian soybean rust); visual disease rating (100 = 100% disease control, 0 = no control; dash = not tested); type: in vivo; details: for pest or weed control at 50 ppm / Test D disease control rating: 50 ppm
Procedure, shortened: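 Compounds predissolved in acetone (3% of final volume), suspended at ppm concentrations in 50/50 acetone/water with 250 ppm PEG400, sprayed to run-off on soybean seedlings. Inoculated next day with spores, 24 h saturated atmosphere at 22 °C, then 8 days growth chamber at 22 °C; visual rating, 100 = full control.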

Row | SMILES | pest or weed control at 250 ppm (Zymoseptoria tritici) [%] | pest or weed control at 250 ppm (Botrytis cinerea) [%] | pest or weed control at 250 ppm (Alternaria solani) [%] | melting point [°C] | pest or weed control at 250 ppm [1] [%] | pest or weed control at 250 ppm [2] [%] | pest or weed control at 250 ppm (Phakopsora pachyrhizi) [%] | pest or weed control at 50 ppm (Zymoseptoria tritici) [%] | pest or weed control at 50 ppm (Botrytis cinerea) [%] | pest or weed control at 50 ppm (Alternaria solani) [%] | pest or weed control at 50 ppm [1] [%] | pest or weed control at 50 ppm [2] [%] | pest or weed control at 50 ppm (Phakopsora pachyrhizi) [%] | Test A disease control rating (Zymoseptoria tritici) [%] | Test E disease control rating (Botrytis cinerea) [%] | Test F disease control rating (Alternaria solani) [%] | Test B disease control rating [1] [%] | Test C disease control rating [2] [%] | Test D disease control rating (Phakopsora pachyrhizi) [%]
1 | COc1cc(OC)c(Cl)c(-c2nn(C)c(=O)c(Cl)c2-c2c(F)cccc2F)c1 [Compound 35, 4-chloro-6-(2-chloro-3,5-dimethoxyphenyl)-5-(2,6-difluorophenyl)-2-methyl-3(2H)-pyridazinone] | 100 | 99 | 99 | 192 to 196 | 100 | 100 | 100 |  |  |  |  |  |  |  |  |  |  |  | 
2 | Cn1nc(-c2ccc(F)cc2Cl)c(-c2ccc(F)cc2Cl)c(C#N)c1=O [Compound 6, 5,6-bis(2-chloro-4-fluorophenyl)-2,3-dihydro-2-methyl-3-oxo-4-pyridazine-carbonitrile] | 100 | 99 | 99 | 137 to 140 | 100 | 92 | 0 |  |  |  |  |  |  |  |  |  |  |  | 
3 | COc1cc(OC)cc(-c2nn(C)c(=O)c(Br)c2-c2c(F)cccc2F)c1 [Compound 34, 4-bromo-5-(2,6-difluorophenyl)-6-(3,5-dimethoxyphenyl)-2-methyl-3(2H)-pyridazinone] | 100 | 99 | 99 | 153 to 157 | 89 | 95 | 99 |  |  |  |  |  |  |  |  |  |  |  | 
4 | COc1cc(OC)cc(-c2nn(C)c(=O)c(Cl)c2-c2c(F)cccc2F)c1 [Compound 36, 4-chloro-5-(2,6-difluorophenyl)-6-(3,5-dimethoxyphenyl)-2-methyl-3(2H)-pyridazinone] | 100 | 100 | 99 | 150 to 154 | 100 | 99 | 93 |  |  |  |  |  |  |  |  |  |  |  | 
5 | COc1ccc(Cl)c(-c2nn(C)c(=O)c(Cl)c2-c2c(F)cccc2F)c1 [Compound 57, 4-chloro-6-(2-chloro-5-methoxyphenyl)-5-(2,6-difluorophenyl)-2-methyl-3(2H)-pyridazinone] |  |  |  | 134 to 137 |  |  |  | 100 | 99 | 100 | 100 | 99 | 99 |  |  |  |  |  | 
6 | CCN1N=C(c2cc(OC)cc(OC)c2)C(c2c(F)cccc2F)CC1=O (centres unmarked) [Compound 33, 5-(2,6-difluorophenyl)-6-(3,5-dimethoxyphenyl)-4,5-dihydro-2-ethyl-3(2H)-pyridazinone] | 0 | 0 | 0 | 119 to 122 | 55 | 0 | 0 |  |  |  |  |  |  |  |  |  |  |  | 
7 | COc1cc(OC)c([N+](=O)[O-])c(-c2nn(C)c(=O)cc2-c2c(F)cccc2F)c1 [Compound 13, 5-(2,6-difluorophenyl)-6-(3,5-dimethoxy-2-nitrophenyl)-2-methyl-3(2H)-pyridazinone] | 94 | 99 | 9 | 174 to 178 | 99 | 81 | 63 |  |  |  |  |  |  |  |  |  |  |  | 
8 | COc1ccc(Cl)c(-c2nn(C)c(=O)c(C)c2-c2c(F)cccc2F)c1 [Compound 68, 6-(2-chloro-5-methoxyphenyl)-5-(2,6-difluorophenyl)-2,4-dimethyl-3(2H)-pyridazinone] |  |  |  | 135 to 138 |  |  |  | 100 | 99 | 100 | 100 | 100 | 100 |  |  |  |  |  | 
9 | COc1cc(OC)c(Cl)c(-c2nn(C)c(=O)c(C)c2-c2ccc(F)cc2Cl)c1 [Compound 66, 6-(2-chloro-3,5-dimethoxyphenyl)-5-(2-chloro-4-fluorophenyl)-2,4-dimethyl-3(2H)-pyridazinone] |  |  |  | 140 to 143 |  |  |  | 100 | 100 | 100 | 100 | 100 | 100 |  |  |  |  |  | 
10 | COc1cc(OC)c([N+](=O)[O-])c(-c2nn(C)c(=O)c(Cl)c2-c2c(F)cccc2F)c1 [Compound 37, 4-chloro-5-(2,6-difluorophenyl)-6-(3,5-dimethoxy-2-nitrophenyl)-2-methyl-3(2H)-pyridazinone] | 99 | 99 | 99 | 223 to 227 | 100 | 98 | 100 |  |  |  |  |  |  |  |  |  |  |  | 
11 | COc1ccc(Cl)c(-c2nn(C)c(=O)c(Cl)c2-c2ccc(F)cc2Cl)c1 [Compound 83, 4-chloro-5-(2-chloro-4-fluorophenyl)-6-(2-chloro-5-methoxyphenyl)-2-methyl-3(2H)-pyridazinone] |  |  |  | 165 to 168 |  |  |  | 100 | 92 | 100 | 100 | 99 | 100 |  |  |  |  |  | 
12 | Cc1c(-c2ccc(F)cc2Cl)c(-c2ccc(F)cc2Cl)nn(C)c1=O [Compound 44, 5,6-bis(2-chloro-4-fluorophenyl)-2,4-dimethyl-3(2H)-pyridazinone] |  |  |  | 126 to 129 |  |  |  | 100 | 93 | 100 | 100 | 100 | 100 |  |  |  |  |  | 
13 | COc1cc(-c2nn(C)c(=O)cc2-c2c(F)cccc2F)cc(OC)c1Cl [Compound 14, 6-(4-chloro-3,5-dimethoxyphenyl)-5-(2,6-difluorophenyl)-2-methyl-3(2H)-pyridazinone] | 88 | 0 | 0 | 221 to 225 | 80 | 0 | 0 |  |  |  |  |  |  |  |  |  |  |  | 
14 | COc1cc(OC)c(Cl)c(-c2nn(C)c(=O)cc2-c2c(F)cccc2F)c1 [Compound 12, 6-(2-chloro-3,5-dimethoxyphenyl)-5-(2,6-difluorophenyl)-2-methyl-3(2H)-pyridazinone] | 100 | 99 | 0 | 172 to 176 | 100 | 100 | 100 |  |  |  |  |  |  |  |  |  |  |  | 
15 | CCn1nc(-c2cc(OC)cc(OC)c2Br)c(-c2c(F)cccc2F)c(OC)c1=O [Compound 74] |  |  |  |  |  |  |  |  |  |  |  |  |  | 100 | 99 | 0 | 99 | 98 | 75
16 | COc1ccc(Cl)c(-c2nn(C)c(=O)cc2-c2ccc(F)cc2Cl)c1 [Compound 117] |  |  |  |  |  |  |  |  |  |  |  |  |  | 99 | 99 | 0 | 98 | 93 | 47
